# From US12023333B2, “Phenyl-sulfamoyl.benzoyc acids as ERAP1 modulators” (GREY WOLF THERAPEUTICS LIMITED, priority 2019, dated 2024)
# Molecular target: T1, Purified ERAP1(37-941)-10His (ERAP1) (Homo sapiens, UniProt Q9NZ08)
# T1 construct: Purified ERAP1(37-941)-10His (ERAP1); 10His (C)
# Assay: ERAP1 mediated hydrolysis of an amide substrate measured in a biochemical system (10-mer decapeptide substrate)
# Conditions: 10-mer substrate, 23° C. for 1 h, excitation 279 nm and emission 355 nm; read-out: IC50 vs Decapeptide WRVYEKC(Dnp)ALK-acid (where Dnp is Dinitrophenyl maleimide) (10-mer)
# Experimental: Biological Assay 1: ERAP1 Mediated Hydrolysis of an Amide Substrate Measured in a Biochemical System
# 1× Assay buffer (AB): 25 mM Bis-tris propane, 0.05% w/v Hydroxypropylmethylcellulose pH 7.75 made with Optima grade water
# Decapeptide WRVYEKC(Dnp)ALK-acid (where Dnp is Dinitrophenyl maleimide) (10-mer) L-Leucine 7-amido-4-methylcoumarin (L-AMC)
# 12.5 μL ERAP1 enzyme in 1×AB was combined with 250 nL test compound in DMSO. 12.5 μL of either 240 μM L-AMC in 1×AB or 100 μM 10-mer in 1×AB was added to the reaction and incubated at 23° C. for 1 h. For detection, plates were read at excitation 365 nm and emission 442 nm (L-AMC) or excitation 279 nm and emission 355 nm (10-mer). Compound IC50 was determined using a 4 parameter equation.
# T1 sequence (Q9NZ08 37-941): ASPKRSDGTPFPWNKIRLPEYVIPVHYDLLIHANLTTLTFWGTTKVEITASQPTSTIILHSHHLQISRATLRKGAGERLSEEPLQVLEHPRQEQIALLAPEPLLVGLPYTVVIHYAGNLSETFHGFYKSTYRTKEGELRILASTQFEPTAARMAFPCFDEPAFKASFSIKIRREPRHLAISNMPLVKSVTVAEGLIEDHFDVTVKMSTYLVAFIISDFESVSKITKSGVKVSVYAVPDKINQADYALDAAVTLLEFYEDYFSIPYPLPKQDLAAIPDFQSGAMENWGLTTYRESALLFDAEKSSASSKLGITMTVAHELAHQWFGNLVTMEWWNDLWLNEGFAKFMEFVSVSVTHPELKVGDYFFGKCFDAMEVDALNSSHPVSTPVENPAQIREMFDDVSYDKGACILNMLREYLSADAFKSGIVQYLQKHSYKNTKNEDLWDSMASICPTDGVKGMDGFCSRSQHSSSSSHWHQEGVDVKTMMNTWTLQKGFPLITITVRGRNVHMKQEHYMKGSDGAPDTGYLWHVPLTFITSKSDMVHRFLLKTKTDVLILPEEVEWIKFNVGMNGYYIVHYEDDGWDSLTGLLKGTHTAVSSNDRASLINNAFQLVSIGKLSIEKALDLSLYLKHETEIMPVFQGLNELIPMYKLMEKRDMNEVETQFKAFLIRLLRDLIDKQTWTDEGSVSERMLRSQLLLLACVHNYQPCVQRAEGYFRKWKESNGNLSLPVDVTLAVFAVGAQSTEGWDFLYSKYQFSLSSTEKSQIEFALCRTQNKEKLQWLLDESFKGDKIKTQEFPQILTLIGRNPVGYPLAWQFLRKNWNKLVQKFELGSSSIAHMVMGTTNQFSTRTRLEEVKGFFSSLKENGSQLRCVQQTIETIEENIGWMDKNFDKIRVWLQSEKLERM
row,IC50,Compound
1,< 5000 nM,"CCc1ccc(C(=O)O)cc1S(=O)(=O)Nc1cc(C(F)(F)F)ccc1-n1cncn1 [Example 29, 3-(N-(2-(1,2,4-triazol-1-yl)-5-(trifluoromethyl)phenyl)sulfamoyl)-4-ethylbenzoic acid]"
2,< 500 nM,"N#Cc1cc(NS(=O)(=O)c2cc(C(=O)O)ccc2C2CC2)c(-c2nccs2)cc1Cl [Example 192, 3-(N-(4-chloro-5-cyano-2-(thiazol-2-yl)phenyl)sulfamoyl)-4-cyclopropylbenzoic acid]"
3,< 500 nM,"CCc1ccc(C(=O)O)cc1S(=O)(=O)Nc1cc(S(C)(=O)=O)ccc1-c1cccc(C#N)c1 [Example 39, 3-(N-(3′-cyano-4-(methylsulfonyl)-[1,1′-biphenyl]-2-yl)sulfamoyl)-4-ethylbenzoic acid]"
4,< 5000 nM,"COc1ccc(C(=O)O)cc1S(=O)(=O)Nc1cc(C(F)(F)F)ccc1-c1ccccc1Cl [Example 10, 3-(N-(2′-chloro-4-(trifluoromethyl)-[1,1′-biphenyl]-2-yl)sulfamoyl)-4-methoxybenzoic acid]"
5,< 500 nM,"CS(=O)(=O)c1ccc(-c2ccc(C3CC3)s2)c(NS(=O)(=O)c2cc(C(=O)O)ccc2C2CC2)c1 [Example 115, 4-cyclopropyl-3-(N-(2-(5-cyclopropylthiophen-2-yl)-5-(methylsulfonyl)phenyl)sulfamoyl)benzoic acid]"
6,< 500 nM,"N#Cc1ccc(-c2cccnn2)c(NS(=O)(=O)c2cc(C(=O)O)ccc2C2CC2)c1 [Example 165, 3-(N-(5-cyano-2-(pyridazin-3-yl)phenyl)sulfamoyl)-4-cyclopropylbenzoic acid]"
7,< 500 nM,"O=C(O)c1ccc(C2CC2)c(S(=O)(=O)Nc2cc(-c3ccns3)c(F)cc2-c2ccccn2)c1 [Example 184, 4-cyclopropyl-3-(N-(4-fluoro-5-(isothiazol-5-yl)-2-(pyridin-2-yl)phenyl)sulfamoyl)benzoic acid]"
8,< 500 nM,"COc1ccc(C(=O)O)cc1S(=O)(=O)Nc1cc(-c2nnn[nH]2)ccc1-c1cccc(F)c1 [Example 64, 3-(N-(3′-fluoro-4-(tetrazol-5-yl)-[1,1′-biphenyl]-2-yl)sulfamoyl)-4-methoxybenzoic acid]"
9,< 500 nM,"CCc1ccc(C(=O)O)cc1S(=O)(=O)Nc1cc(C(F)(F)F)ccc1-c1cccnc1 [Example 27, 4-ethyl-3-(N-(2-(pyridin-3-yl)-5-(trifluoromethyl)phenyl)sulfamoyl)benzoic acid]"
10,< 500 nM,"N#Cc1ccc(-n2cccc2)c(NS(=O)(=O)c2cc(C(=O)O)ccc2C2CC2)c1 [Example 109, 3-(N-(5-cyano-2-(pyrrol-1-yl)phenyl)sulfamoyl)-4-cyclopropylbenzoic acid]"
11,< 500 nM,"N#Cc1ccc(-c2cccc(F)n2)c(NS(=O)(=O)c2cc(C(=O)O)ccc2C2CC2)c1 [Example 153, 3-(N-(5-cyano-2-(6-fluoropyridin-2-yl)phenyl)sulfamoyl)-4-cyclopropylbenzoic acid]"
12,< 500 nM,"N#Cc1ccc(-c2nccs2)c(NS(=O)(=O)c2cc(C(=O)O)ccc2C2CC2)c1 [Example 163, 3-(N-(5-cyano-2-(thiazol-2-yl)phenyl)sulfamoyl)-4-cyclopropylbenzoic acid]"
13,< 500 nM,"CCc1ccc(C(=O)O)cc1S(=O)(=O)Nc1cc(C#N)ccc1-c1ccccc1 [Example 40, 3-(N-(4-cyano-[1,1′-biphenyl]-2-yl)sulfamoyl)-4-ethylbenzoic acid]"
14,< 500 nM,"N#Cc1cc(NS(=O)(=O)c2cc(C(=O)O)ccc2C2CC2)c(-c2nccs2)cc1F [Example 183, 3-(N-(5-cyano-4-fluoro-2-(thiazol-2-yl)phenyl)sulfamoyl)-4-cyclopropylbenzoic acid]"
15,< 500 nM,"O=C(O)c1ccc(C2CC2)c(S(=O)(=O)Nc2cc(-c3ccns3)c(Cl)cc2-n2cccc2)c1 [Example 203, 3-(N-(4-chloro-5-(isothiazol-5-yl)-2-(pyrrol-1-yl)phenyl)sulfamoyl)-4-cyclopropylbenzoic acid]"
16,< 500 nM,"N#Cc1ccc(-c2ccc(F)s2)c(NS(=O)(=O)c2cc(C(=O)O)ccc2C2CC2)c1 [Example 102, 3-(N-(5-cyano-2-(5-fluorothiophen-2-yl)phenyl)sulfamoyl)-4-cyclopropylbenzoic acid]"
17,< 500 nM,"COc1ccc(C(=O)O)cc1S(=O)(=O)Nc1cc(C(F)(F)F)ccc1-c1cccc(C)c1 [Example 6, 4-methoxy-3-(N-(3′-methyl-4-(trifluoromethyl)-[1,1′-biphenyl]-2-yl)sulfamoyl)benzoic acid]"
18,< 500 nM,"COc1ccc(C(=O)O)cc1S(=O)(=O)Nc1cc(C(F)(F)F)ccc1-c1ccccc1F [Example 9, 3-(N-(2′-fluoro-4-(trifluoromethyl)-[1,1′-biphenyl]-2-yl)sulfamoyl)-4-methoxybenzoic acid]"

row,IC50,Compound
1,< 500 nM,"O=C(O)c1ccc(C2CC2)c(S(=O)(=O)Nc2cc(-n3cnnn3)c(Cl)cc2-n2cccc2)c1 [Example 206, 3-(N-(4-chloro-2-(pyrrol-1-yl)-5-(tetrazol-1-yl)phenyl)sulfamoyl)-4-cyclopropylbenzoic acid]"
2,< 500 nM,"COc1ccc(C(=O)O)cc1S(=O)(=O)Nc1cc(C#N)ccc1-c1ccc(Cl)s1 [Example 90, 3-(N-(2-(5-chlorothiophen-2-yl)-5-cyanophenyl)sulfamoyl)-4-methoxybenzoic acid]"
3,< 5000 nM,"COc1cccc(-c2ccc(C(F)(F)F)cc2NS(=O)(=O)c2cc(C(=O)O)ccc2OC)c1 [Example 17, 4-methoxy-3-(N-(3′-methoxy-4-(trifluoromethyl)-[1,1′-biphenyl]-2-yl)sulfamoyl)benzoic acid]"
4,< 500 nM,"N#Cc1ccc(-c2ccc(C(F)(F)F)cc2NS(=O)(=O)c2cc(C(=O)O)ccc2C2CC2)s1 [Example 127, 3-(N-(2-(5-cyanothiophen-2-yl)-5-(trifluoromethyl)phenyl)sulfamoyl)-4-cyclopropylbenzoic acid]"
5,< 500 nM,"Cc1oncc1-c1ccc(-c2cccnc2)c(NS(=O)(=O)c2cc(C(=O)O)ccc2C2CC2)c1 [Example 167, 4-cyclopropyl-3-(N-(5-(5-methylisoxazol-4-yl)-2-(pyridin-3-yl)phenyl)sulfamoyl)benzoic acid]"
6,< 500 nM,"CCc1ccc(C(=O)O)cc1S(=O)(=O)Nc1cc(C(F)(F)F)ccc1-c1cccc(F)c1 [Example 24, 4-ethyl-3-(N-(3′-fluoro-4-(trifluoromethyl)-[1,1′-biphenyl]-2-yl)sulfamoyl) benzoic acid]"
7,< 500 nM,"Cc1oncc1-c1cc(NS(=O)(=O)c2cc(C(=O)O)ccc2C2CC2)c(-n2cccc2)cc1F [Example 202, 4-cyclopropyl-3-(N-(4-fluoro-5-(5-methylisoxazol-4-yl)-2-(pyrrol-1-yl)phenyl)sulfamoyl)benzoic acid]"
8,< 500 nM,"Cc1oncc1-c1ccc(-c2ccc(F)s2)c(NS(=O)(=O)c2cc(C(=O)O)ccc2C2CC2)c1 [Example 160, 4-cyclopropyl-3-(N-(2-(5-fluorothiophen-2-yl)-5-(5-methylisoxazol-4-yl)phenyl)sulfamoyl)benzoic acid]"
9,< 500 nM,"Cn1ncnc1-c1cc(NS(=O)(=O)c2cc(C(=O)O)ccc2C2CC2)c(-n2cccc2)cc1Cl [Example 204, 3-(N-(4-chloro-5-(1-methyl-1,2,4-triazol-5-yl)-2-(pyrrol-1-yl)phenyl)sulfamoyl)-4-cyclopropylbenzoic acid]"
10,< 500 nM,"CS(=O)(=O)c1ccc(-c2ccccn2)c(NS(=O)(=O)c2cc(C(=O)O)ccc2C2CC2)c1 [Example 82, 4-cyclopropyl-3-(N-(5-(methylsulfonyl)-2-(pyridin-2-yl)phenyl)sulfamoyl) benzoic acid]"
11,< 500 nM,"Cn1nccc1-c1cc(NS(=O)(=O)c2cc(C(=O)O)ccc2C2CC2)c(-n2cccc2)cc1F [Example 199, 4-cyclopropyl-3-(N-(4-fluoro-5-(1-methylpyrazol-5-yl)-2-(pyrrol-1-yl)phenyl)sulfamoyl)benzoic acid]"
12,< 500 nM,"COc1ccc(C(=O)O)cc1S(=O)(=O)Nc1cc(C(F)(F)F)ccc1-c1ccccc1C [Example 8, 4-methoxy-3-(N-(2′-methyl-4-(trifluoromethyl)-[1,1′-biphenyl]-2-yl)sulfamoyl)benzoic acid]"
13,< 500 nM,"CCc1ccc(C(=O)O)cc1S(=O)(=O)Nc1cc(C(F)(F)F)ccc1-c1ccc(OC)s1 [Example 59, 4-ethyl-3-(N-(2-(5-methoxythiophen-2-yl)-5-(trifluoromethyl)phenyl)sulfamoyl)benzoic acid]"
14,< 500 nM,"N#Cc1cc(NS(=O)(=O)c2cc(C(=O)O)ccc2C2CC2)c(-c2ccccn2)cc1Cl [Example 132, 3-(N-(4-chloro-5-cyano-2-(pyridin-2-yl)phenyl)sulfamoyl)-4-cyclopropylbenzoic acid]"
15,< 500 nM,"COc1ccc(C(=O)O)cc1S(=O)(=O)Nc1cc(C(F)(F)F)ccc1-c1ccsc1 [Example 20, 4-methoxy-3-(N-(2-(thiophen-3-yl)-5-(trifluoromethyl)phenyl)sulfamoyl) benzoic acid]"
16,< 500 nM,"CCc1ccc(C(=O)O)cc1S(=O)(=O)Nc1cc(C(F)(F)F)ccc1-c1ccc(C#N)s1 [Example 77, 3-(N-(2-(5-cyanothiophen-2-yl)-5-(trifluoromethyl)phenyl)sulfamoyl)-4-ethylbenzoic acid]"
17,< 500 nM,"CCc1ccc(C(=O)O)cc1S(=O)(=O)Nc1cc(C(F)(F)F)ccc1-n1cccn1 [Example 31, 3-(N-(2-(pyrazol-1-yl)-5-(trifluoromethyl)phenyl)sulfamoyl)-4-ethylbenzoic acid]"
